Laboratory results taken from patent US9999222B2, “Herbicidal combination comprising azines” (BASF SE, priority 2014, dated 2018).
Like-named read-outs stand apart in the source and are kept apart here.

Assays:
Assay in all cases: Greenhouse test, pre-emergence treatment
ABUTH = type: in vivo, Abutilon theophrasti; conditions: Abutilon theophrasti, 480 h, read-out: observed % activity 20 DAT
Procedure, shortened: (§1)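 Seeds were sown in loamy sand with about 3.0% humus, and compounds in water were sprayed immediately after sowing, alone or as combinations formulated as 10% emulsion concentrates. Plants grew under hoods until rooted, at 10-25 °C or 20-35 °C by species, for 2 to 4 weeks. Damage was scored 0-100 (100 = no emergence or complete destruction), and Colby expected values were E=X+Y−(X·Y/100).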

SETVI = type: in vivo, Setaria viridis
From the text: (§2) The culture containers used were plastic flowerpots containing loamy sand with approximately 3.0% of humus as the substrate. The seeds of the test plants were sown separately for each species.
(§3) For the pre-emergence treatment, the active ingredients, which had been suspended or emulsified in water, were applied directly after sowing by means of finely distributing nozzles. The containers were irrigated gently to promote germination and growth and subsequently covered with transparent plastic hoods until the plants had rooted. This cover caused uniform germination of the test plants, unless this had been impaired by the active ingredients.
(§4) Depending on the species, the plants were kept at 10-25° C. or 20-35° C., respectively.
(§5) The test period extended over 2 to 4 weeks. During this time, the plants were tended, and their response to the individual treatments was evaluated.
(§6) Evaluation was carried out using a scale from 0 to 100. 100 means no emergence of the plants, or complete destruction of at least the aerial moieties, and 0 means no damage, or normal course of growth. A moderate herbicidal activity is given at values of at least 60, a good herbicidal activity is given at values of at least 70, and a very good herbicidal activity is given at values of at least 85.
(§7) The respective stated components a and b, and if appropriate, c were formulated as a 10% by weight strength emulsion concentrate and, with addition of the amount of solvent system, introduced into the spray liquor used for applying the active compound.
(§8) In the examples, the solvent used was water.
(§9) In the examples below, using the method of S. R. Colby (1967) “Calculating synergistic and antagonistic responses of herbicide combinations”, Weeds 15, p. 22ff., the value E, which is expected if the activity of the individual active compounds is only additive, was calculated. E=X+Y−(X·Y/100) where • X=percent activity using active compound a at an application rate A; • Y=percent activity using active compound b at an application rate B; • E=expected activity (in %) by a+b at application rates A+B.
(§10) If the value found experimentally is higher than the value E calculated according to Colby, a synergistic effect is present.

ELEIN = type: in vivo, Eleusine indica
From the text: as §2, §3, §4, §5, §6, §7, §8, §9, §10

SIDRH = type: in vivo, Sida rhombifolia; conditions: pre-emergence
Procedure, shortened: as §1

CENCY [1] = type: in vivo
CENCY [2] = type: in vivo; conditions: individual
ERICA [3] = type: in vivo, Erigeron canadensis
ERICA [4] = type: in vivo; conditions: 480 h, read-out: observed % activity 20 DAT
DIGSA [5] = type: in vivo, Digitaria sanguinalis; conditions: 4 g ai/ha
DIGSA [6] = type: in vivo; conditions: Digitaria sanguinalis, 480 h, read-out: observed % activity 20 DAT
[7] = Sida rhombifolia, 480 h, 8 g ai/ha, read-out: observed % activity 20 DAT

Structure (SMILES): Nc1nc(Nc2c(F)c(F)cc(F)c2F)nc(C2(F)CCCC2)n1 [compound 9, 6-(1-fluorocyclopentyl)-N4-(2,3,5,6-tetrafluorophenyl)-1,3,5-triazine-2,4-diamine]
- pest or weed control at 4 g/ha (ABUTH; 4 g ai/ha): 55%
- inhibition at 8 g/ha (ABUTH; 8 g ai/ha): 20%
- pest or weed control at 8 g/ha (ABUTH; 8 g ai/ha): 40%
- inhibition at 16 g/ha (ABUTH; 16 g ai/ha): 20%
- inhibition at 8 g/ha (ABUTH; ABUTH, individual, use rate 8 g ai/ha): 20%
- inhibition at 16 g/ha (ABUTH; ABUTH, individual, use rate 16 g ai/ha): 20%
- observed % activity 20 DAT (SETVI; 2 g ai/ha): 90%
- observed % activity 20 DAT (SETVI; 4 g ai/ha): 90%
- inhibition at 2 g/ha (SETVI; Setaria viridis, 480 h, 2 g ai/ha, read-out: observed % activity 20 DAT): 70%
- inhibition at 4 g/ha (SETVI; Setaria viridis, 480 h, 4 g ai/ha, read-out: observed % activity 20 DAT): 80%
- observed % activity 20 DAT (ELEIN; 2 g ai/ha): 95%
- inhibition at 2 g/ha (ELEIN; Eleusine indica, 480 h, 2 g ai/ha, read-out: observed % activity 20 DAT): 95%
- inhibition at 4 g/ha (ELEIN; Eleusine indica, 480 h, 4 g ai/ha, read-out: observed % activity 20 DAT): 98%
- observed % activity 20 DAT (SIDRH; SIDRH, individual, use rate 8 g ai/ha): 15%
- observed % activity 20 DAT (SIDRH; SIDRH, individual, use rate 16 g ai/ha): 55%
- pest or weed control at 4 g/ha (SIDRH; Sida rhombifolia, 480 h, 4 g ai/ha, read-out: observed % activity 20 DAT): 10%
- pest or weed control at 8 g/ha (SIDRH; [7]): 10%
- inhibition at 8 g/ha (SIDRH; Sida rhombifolia, 480 h, SIDRH, individual, use rate 8 g ai/ha, read-out: observed % activity 20 DAT): 25%
- inhibition at 8 g/ha (SIDRH; [7]): 25%
- inhibition at 16 g/ha (SIDRH; Sida rhombifolia, 480 h, 16 g ai/ha, read-out: observed % activity 20 DAT): 30%
- observed % activity 20 DAT (CENCY [1]; 8 g ai/ha): 35%
- inhibition at 4 g/ha (CENCY [1]; 480 h, 4 g ai/ha, read-out: observed % activity 20 DAT): 40%
- inhibition at 8 g/ha (CENCY [1]; 480 h, 8 g ai/ha, read-out: observed % activity 20 DAT): 20%
- inhibition at 16 g/ha (CENCY [1]; 480 h, 16 g ai/ha, read-out: observed % activity 20 DAT): 10%
- inhibition at 8 g/ha (CENCY [2]; 480 h, use rate 8 g ai/ha, read-out: observed % activity 20 DAT): 20%
- inhibition at 16 g/ha (CENCY [2]; 480 h, use rate 16 g ai/ha, read-out: observed % activity 20 DAT): 15%
- observed % activity 20 DAT (CENCY [2]; use rate 8 g ai/ha): 35%
- observed % activity 20 DAT (ERICA [3]; 4 g ai/ha): 98%
- observed % activity 20 DAT (ERICA [3]; 8 g ai/ha): 98%
- inhibition at 4 g/ha (ERICA [4]; 4 g ai/ha): 98%
- inhibition at 8 g/ha (ERICA [4]; 8 g ai/ha): 98%
- observed % activity 20 DAT (DIGSA [5]): 80%
- inhibition at 2 g/ha (DIGSA [6]; 2 g ai/ha): 75%
- inhibition at 4 g/ha (DIGSA [6]; 4 g ai/ha): 60%
